Experimental data from patent publication US7883707B2, “Induction of antigen specific immunnologic tolerance” (priority 2002, dated 2011).

Experiments:
[1] = test system: antibody titer to rh-alpha-glucosidase (rhGAA); test: ELISA antibody titer to rhGAA in canines on weekly rhGAA infusions; assay type: in vivo, canine
Method: Enzyme Infusions. […] Infusions were performed with 0.056 mg/kg/week recombinant human alpha glucosidase in a 50 mL infusion of saline and 10 mM NaPO4, pH 5.8. […] Animals were monitored for anaphylactic reaction.

fibroblasts = test: Half maximal uptake (Kuptake) of alpha-glucosidase into fibroblasts; assay type: cell-based
[2] = control canine ST, no drug treatment

Kuptake (enzyme concentration at half maximal uptake) (fibroblasts): about 1 nanomolar
Substance: rhGAA: recombinant human alpha-glucosidase, lysosomal enzyme being developed to treat Pompe disease
Antibody levels to rhGAA at the highest point ([1]; 0.056 mg/kg/week iv rhGAA, weeks 1-12): > 150 OD Units
titer by week 4 [1, 2]: more than 100 OD units per microliter of serum
titer subsequently (after week 4) [1, 2]: 100-200 units per microliter of serum
higher titer of control dog by week 5 ([1]; control vs treated dog): 100 fold
